Laboratory results published in patent publication US20220119354A1, “DIAMINO-SUBSTITUTED PYRIDINES AND PYRIMIDINES AS HERBICIDES” (FMC Corporation, priority 2019, published 2022).

How the values were obtained:
Type in all cases: in vivo
[1] = tested on: ducksalad (Heteranthera limosa); assay: Test B flooded paddy test, ducksalad; settings: Flood, 250 g ai/ha, applied to paddy water, 2-leaf stage, visual evaluation after 13 to 15 d
Summary of the method: (§1)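 Rating: 0 = no effect, 100 = complete control, visual, relative to untreated plants. Conditions: 2-leaf stage, 3 cm flood kept constant, compound put directly into water, 13–15 d greenhouse.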

kochia (Kochia scoparia) [2] = assay: Test A postemergence, kochia; settings: 0 to 100 scale
Summary of the method: (§2)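 Compound, in a non-phytotoxic solvent blend containing surfactant, is sprayed onto soil immediately after sowing or onto young plants (one- to two-leaf, 2–10 cm). After roughly 10 d under greenhouse conditions, injury is judged by eye relative to untreated plants on a 0–100 control scale.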

[3] = tested on: pigweed (Amaranthus retroflexus); assay: Test A postemergence, pigweed; settings: 0 to 100 scale
Summary of the method: as §2

[4] = tested on: pigweed (Amaranthus retroflexus); assay: Test A preemergence, pigweed; settings: 0 to 100 scale; for Pigweed plant response rating: 0 is no effect, 100 is complete control
Summary of the method: as §2

[5] = tested on: ryegrass, Italian (Lolium multiflorum); assay: Test A preemergence, Italian ryegrass; settings: 0 to 100 scale; for Ryegrass, Italian plant response rating: 0 is no effect, 100 is complete control
Summary of the method: as §2

[6] = tested on: ryegrass, Italian (Lolium multiflorum); assay: Test A postemergence, Italian ryegrass; settings: 0 to 100 scale
Summary of the method: as §2

[7] = tested on: barnyardgrass (Echinochloa crus-galli); assay: Test A postemergence, barnyardgrass; settings: 0 to 100 scale, 0 no effect, 100 complete control
Summary of the method: as §2

[8] = tested on: ragweed (common ragweed, Ambrosia elatior); assay: Test A preemergence, ragweed; settings: 0 to 100 scale; for Ragweed plant response rating: 0 is no effect, 100 is complete control
Summary of the method: as §2

[9] = tested on: wheat (Triticum aestivum); assay: Test A postemergence, wheat; settings: 0 to 100 scale
Summary of the method: as §2

[10] = tested on: barnyardgrass (Echinochloa crus-galli); assay: Test A preemergence, barnyardgrass; settings: 0 to 100 scale; for Barnyardgrass plant response rating: 0 is no effect, 100 is complete control
Summary of the method: as §2

[11] = tested on: foxtail, giant (Setaria faberii); assay: Test A preemergence, giant foxtail; settings: 0 to 100 scale; for Foxtail, Giant plant response rating: 0 is no effect, 100 is complete control
Summary of the method: as §2

[12] = tested on: ragweed (common ragweed, Ambrosia elatior); assay: Test A postemergence, ragweed; settings: 0 to 100 scale
Summary of the method: as §2

rice (Oryza sativa) = assay: Test B flooded paddy test, rice; settings: Flood, 250 g ai/ha, applied to paddy water, 2-leaf stage, visual evaluation after 13 to 15 d
Summary of the method: as §1

corn (Zea mays) = assay: Test A postemergence, corn; settings: 0 to 100 scale
Summary of the method: as §2

[13] = tested on: sedge, umbrella (small-flower umbrella sedge, Cyperus difformis); assay: Test B flooded paddy test, umbrella sedge; settings: Flood, 250 g ai/ha, applied to paddy water, 2-leaf stage, visual evaluation after 13 to 15 d
Summary of the method: as §1

[14] = tested on: blackgrass (Alopecurus myosuroides); assay: Test A postemergence, blackgrass; settings: 0 to 100 scale
Summary of the method: as §2

[15] = tested on: foxtail, giant (Setaria faberii); assay: Test A postemergence, giant foxtail; settings: 0 to 100 scale
Summary of the method: as §2

[16] = tested on: barnyardgrass (Echinochloa crus-galli); assay: Test B flooded paddy test, barnyardgrass; settings: Flood, 250 g ai/ha, applied to paddy water, 2-leaf stage, visual evaluation after 13 to 15 d
Summary of the method: as §1

kochia (Kochia scoparia) [17] = assay: Test A preemergence, kochia; settings: 0 to 100 scale; for Kochia plant response rating: 0 is no effect, 100 is complete control
Summary of the method: as §2

[18] = tested on: galium (catchweed bedstraw, Galium aparine); assay: Test A postemergence, galium; settings: 0 to 100 scale
Summary of the method: as §2

[19] = 31 g ai/ha, 0 no effect, 100 complete control
[20] = 125 g ai/ha, 0 no effect, 100 complete control
[21] = 500 g ai/ha, 0 no effect, 100 complete control

Row | SMILES | Plant response rating, Ducksalad (0 to 100 scale, 0 is no effect, 100 is complete control) [1] | Plant response rating, Kochia (kochia (Kochia scoparia) [2]; [20]) | Plant response rating, Pigweed [3, 20] | Pigweed plant response rating ([4]; 125 g ai/ha) | Ryegrass, Italian plant response rating ([5]; 125 g ai/ha) | Plant response rating, Ryegrass, Italian [6, 20] | Plant response rating, Barnyardgrass ([7]; 125 g ai/ha) | Ragweed plant response rating ([8]; 125 g ai/ha) | Plant response rating, Wheat [9, 20] | Barnyardgrass plant response rating ([10]; 125 g ai/ha) | Foxtail, Giant plant response rating ([11]; 125 g ai/ha) | Plant response rating, Ragweed [12, 20] | Plant response rating, Rice (0 to 100 scale, 0 is no effect, 100 is complete control) (rice (Oryza sativa)) | Plant response rating, Corn (corn (Zea mays); [20]) | Plant response rating, Sedge, Umbrella (0 to 100 scale, 0 is no effect, 100 is complete control) [13] | Plant response rating, Blackgrass [14, 20] | Plant response rating, Foxtail, Giant [15, 20] | Plant response rating, Barnyardgrass (0 to 100 scale, 0 is no effect, 100 is complete control) [16] | Kochia plant response rating (kochia (Kochia scoparia) [17]; 125 g ai/ha) | Plant response rating, Galium [18, 20] | other results
1 | CC(F)c1nc(N[C@H](C)c2cc3ccccc3o2)nc(N)c1C(F)(F)F (some centres unmarked) [Compound 112] | 0 | 60 | 60 | 80 | 0 | 0 | 0 | 30 | 0 | 0 | 0 | 0 | 0 | 0 | 0 | 0 | 0 | 0 | 70 | 60 | Plant response rating, Kochia (kochia (Kochia scoparia) [2]; [19]): 10; Plant response rating, Pigweed [3, 19]: 30; Pigweed plant response rating ([4]; 31 g ai/ha): 0; Ryegrass, Italian plant response rating ([5]; 31 g ai/ha): 0; Plant response rating, Ryegrass, Italian [6, 19]: 0; Plant response rating, Barnyardgrass ([7]; 31 g ai/ha): 0; Ragweed plant response rating ([8]; 31 g ai/ha): 0; Plant response rating, Wheat [9, 19]: 0; Barnyardgrass plant response rating ([10]; 31 g ai/ha): 0; Foxtail, Giant plant response rating ([11]; 31 g ai/ha): 0; Plant response rating, Ragweed [12, 19]: 0; Plant response rating, Corn (corn (Zea mays); [19]): 30; Plant response rating, Blackgrass [14, 19]: 0; Plant response rating, Foxtail, Giant [15, 19]: 0; Kochia plant response rating (kochia (Kochia scoparia) [17]; 31 g ai/ha): 0; Plant response rating, Galium [18, 19]: 20
2 | C[C@H](COc1ccccc1)Nc1ncc(C(F)(F)F)c(N)n1 [Compound 26] | 0 |  |  |  |  |  |  |  |  |  |  |  | 0 |  | 0 |  |  | 0 |  |  | Plant response rating, Kochia (kochia (Kochia scoparia) [2]; 1000 g ai/ha): 30; Plant response rating, Pigweed ([3]; 1000 g ai/ha): 50; Plant response rating, Pigweed ([4]; 1000 g ai/ha): 80; Plant response rating, Ryegrass, Italian ([5]; 1000 g ai/ha): 20; Plant response rating, Ryegrass, Italian ([6]; 1000 g ai/ha): 10; Plant response rating, Barnyardgrass ([7]; 1000 g ai/ha): 0; Plant response rating, Ragweed ([8]; 1000 g ai/ha): 100; Plant response rating, Wheat ([9]; 1000 g ai/ha): 0; Plant response rating, Barnyardgrass ([10]; 1000 g ai/ha): 10; Plant response rating, Foxtail, Giant ([11]; 1000 g ai/ha): 50; Plant response rating, Ragweed ([12]; 1000 g ai/ha): 30; Plant response rating, Corn (corn (Zea mays); 1000 g ai/ha): 10; Plant response rating, Blackgrass ([14]; 1000 g ai/ha): 0; Plant response rating, Foxtail, Giant ([15]; 1000 g ai/ha): 0; Plant response rating, Kochia (kochia (Kochia scoparia) [17]; 1000 g ai/ha): 0; Plant response rating, Galium ([18]; 1000 g ai/ha): 60
3 | C[C@@H](Nc1ncc(C(F)(F)F)c(N)n1)c1coc2cc(Cl)ccc12 [Compound 55] | 70 | 70 | 100 | 80 | 20 | 30 | 30 | 100 | 0 | 80 | 50 | 50 | 0 | 10 | 98 | 0 | 20 | 30 | 40 | 70 | Plant response rating, Kochia (kochia (Kochia scoparia) [2]; [21]): 90; Plant response rating, Pigweed [3, 21]: 100; Pigweed plant response rating ([4]; 500 g ai/ha): 100; Ryegrass, Italian plant response rating ([5]; 500 g ai/ha): 70; Plant response rating, Ryegrass, Italian [6, 21]: 30; Plant response rating, Barnyardgrass ([7]; 500 g ai/ha): 70; Ragweed plant response rating ([8]; 500 g ai/ha): 100; Plant response rating, Wheat [9, 21]: 0; Barnyardgrass plant response rating ([10]; 500 g ai/ha): 80; Foxtail, Giant plant response rating ([11]; 500 g ai/ha): 90; Plant response rating, Ragweed [12, 21]: 80; Plant response rating, Corn (corn (Zea mays); [21]): 0; Plant response rating, Blackgrass [14, 21]: 20; Plant response rating, Foxtail, Giant [15, 21]: 90; Kochia plant response rating (kochia (Kochia scoparia) [17]; 500 g ai/ha): 90; Plant response rating, Galium [18, 21]: 90
4 | CC(F)c1nc(N[C@H](C)c2cc3ccccc3s2)nc(N)c1C(F)(F)F (some centres unmarked) [Compound 108] | 30 | 70 | 90 | 90 | 30 | 50 | 0 | 70 | 0 | 30 | 30 | 50 | 0 | 10 | 75 | 0 | 20 | 35 | 90 | 70 | Plant response rating, Kochia (kochia (Kochia scoparia) [2]; [19]): 40; Plant response rating, Pigweed [3, 19]: 70; Pigweed plant response rating ([4]; 31 g ai/ha): 70; Ryegrass, Italian plant response rating ([5]; 31 g ai/ha): 0; Plant response rating, Ryegrass, Italian [6, 19]: 0; Plant response rating, Barnyardgrass ([7]; 31 g ai/ha): 20; Ragweed plant response rating ([8]; 31 g ai/ha): 50; Plant response rating, Wheat [9, 19]: 0; Barnyardgrass plant response rating ([10]; 31 g ai/ha): 40; Foxtail, Giant plant response rating ([11]; 31 g ai/ha): 30; Plant response rating, Ragweed [12, 19]: 30; Plant response rating, Corn (corn (Zea mays); [19]): 0; Plant response rating, Blackgrass [14, 19]: 0; Plant response rating, Foxtail, Giant [15, 19]: 0; Kochia plant response rating (kochia (Kochia scoparia) [17]; 31 g ai/ha): 90; Plant response rating, Galium [18, 19]: 50
